# Assay results: ChEMBL document CHEMBL5465560, “Selectivity Literature for EUbOPEN Chemogenomic Library” (2024)
# Tests used:
# [1] = test system: Mast/stem cell growth factor receptor Kit (Homo sapiens), P10721 [V559D,V654A]; experiment: (§1) Selectivity interaction (KinomeScan (DiscoverX)) EUB0001079a KIT; details: at 1 µM
# [2] = test system: Mast/stem cell growth factor receptor Kit (Homo sapiens), P10721 [A829P]; experiment: as §1; details: at 1 µM
# [3] = test system: Mast/stem cell growth factor receptor Kit (Homo sapiens), P10721 [L576P]; experiment: as §1; details: at 1 µM
# [4] = test system: Mast/stem cell growth factor receptor Kit (Homo sapiens), P10721 [V559D]; experiment: as §1; details: at 1 µM
# [5] = test system: Mast/stem cell growth factor receptor Kit (Homo sapiens), P10721 [V559D,T670I]; experiment: as §1; details: at 1 µM
# [6] = test system: Mast/stem cell growth factor receptor Kit (Homo sapiens), P10721 [D816H]; experiment: as §1; details: at 1 µM
# [7] = target: Mast/stem cell growth factor receptor Kit (Homo sapiens, UniProt P10721); experiment: as §1; details: at 1 µM
# [8] = test system: Mast/stem cell growth factor receptor Kit (Homo sapiens), P10721 [D816V]; experiment: as §1; details: at 1 µM
# [9] = target: Protein kinase C eta type (Homo sapiens) (UniProt P24723); experiment: Selectivity interaction (Millipore kinase profiler) EUB0000124b PRKCH; details: at 10 µM
# [10] = target: Tyrosine-protein kinase FRK (Homo sapiens) (UniProt P42685); experiment: Selectivity interaction (KinomeScan (DiscoverX)) EUB0000618a FRK; details: at 10 µM
# [11] = target: T1, Phosphatidylinositol 3-kinase C2 domain-containing subunit gamma (Homo sapiens) (UniProt O75747); experiment: Selectivity interaction (KinomeScan (DiscoverX)) EUB0000618a PIK3C2G; details: at 10 µM
# T1 sequence (whole entry): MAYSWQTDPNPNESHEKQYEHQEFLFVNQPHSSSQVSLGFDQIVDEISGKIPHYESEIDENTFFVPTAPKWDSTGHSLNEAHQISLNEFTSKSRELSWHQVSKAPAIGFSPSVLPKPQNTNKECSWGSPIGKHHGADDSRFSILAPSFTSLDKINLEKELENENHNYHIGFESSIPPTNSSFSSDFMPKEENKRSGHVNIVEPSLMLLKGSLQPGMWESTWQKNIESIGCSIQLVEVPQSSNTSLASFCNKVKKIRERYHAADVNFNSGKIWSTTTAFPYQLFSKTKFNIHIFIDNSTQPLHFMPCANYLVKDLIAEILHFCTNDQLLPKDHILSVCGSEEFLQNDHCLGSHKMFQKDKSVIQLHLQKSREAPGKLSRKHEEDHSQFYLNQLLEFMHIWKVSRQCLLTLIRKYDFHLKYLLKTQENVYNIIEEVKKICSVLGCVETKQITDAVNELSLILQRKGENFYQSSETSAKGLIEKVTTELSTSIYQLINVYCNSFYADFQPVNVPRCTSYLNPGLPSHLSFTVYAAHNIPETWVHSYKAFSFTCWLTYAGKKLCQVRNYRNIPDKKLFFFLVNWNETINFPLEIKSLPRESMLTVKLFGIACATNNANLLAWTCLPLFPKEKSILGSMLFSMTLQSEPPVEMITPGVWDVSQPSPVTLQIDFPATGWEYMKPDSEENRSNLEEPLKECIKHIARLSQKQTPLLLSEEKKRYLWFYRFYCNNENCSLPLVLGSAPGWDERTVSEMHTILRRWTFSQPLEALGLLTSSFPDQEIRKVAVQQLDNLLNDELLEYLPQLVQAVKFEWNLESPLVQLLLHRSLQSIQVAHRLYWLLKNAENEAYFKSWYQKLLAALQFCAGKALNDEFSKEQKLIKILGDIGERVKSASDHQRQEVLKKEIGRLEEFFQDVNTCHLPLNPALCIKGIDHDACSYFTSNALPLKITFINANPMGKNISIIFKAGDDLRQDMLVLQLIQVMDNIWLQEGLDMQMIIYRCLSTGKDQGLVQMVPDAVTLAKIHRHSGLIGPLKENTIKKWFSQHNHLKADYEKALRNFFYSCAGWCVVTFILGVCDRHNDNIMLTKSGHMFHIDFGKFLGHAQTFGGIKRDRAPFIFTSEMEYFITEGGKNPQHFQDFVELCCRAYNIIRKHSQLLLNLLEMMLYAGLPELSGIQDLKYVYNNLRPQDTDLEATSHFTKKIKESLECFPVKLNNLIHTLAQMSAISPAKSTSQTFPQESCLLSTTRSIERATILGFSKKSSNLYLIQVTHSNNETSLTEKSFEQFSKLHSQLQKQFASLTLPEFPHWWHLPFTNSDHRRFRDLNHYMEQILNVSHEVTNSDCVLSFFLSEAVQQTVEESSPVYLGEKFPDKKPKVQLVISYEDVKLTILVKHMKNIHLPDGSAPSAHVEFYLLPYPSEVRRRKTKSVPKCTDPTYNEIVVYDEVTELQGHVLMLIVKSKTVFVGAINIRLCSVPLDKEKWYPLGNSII
# [12] = target: Macrophage-stimulating protein receptor (Homo sapiens, UniProt Q04912); experiment: Selectivity interaction (KinomeScan (DiscoverX)) EUB0000607a MST1R; details: at 10 µM
# [13] = target: Cyclin-dependent kinase 8 (Homo sapiens, UniProt P49336); experiment: Selectivity interaction (KinomeScan (DiscoverX)) EUB0001619a CDK8; details: at 1 µM
# [14] = target: Serine/threonine-protein kinase PAK 1 (Homo sapiens) (UniProt Q13153); experiment: Selectivity interaction (KinomeScan (DiscoverX)) EUB0000595a PAK1; details: at 10 µM
# [15] = target: Serine/threonine-protein kinase Nek7 (Homo sapiens) (UniProt Q8TDX7); experiment: Selectivity interaction (Kinase panel (KiNativ target engagement assay in Jurkat cells)) EUB0001635a NEK7; type: cell-based; details: Selectivity number of off-targets 0.0, Selectivity number of targets 233.0, Source Knowledge https://www.sciencedirect.com/science/article/pii/S2451945619300674?via%3Dihub, at 1 µM
# [16] = target: Mitogen-activated protein kinase 7 (Homo sapiens) (UniProt Q13164); details: at 10 µM
# [17] = target: T2, Membrane-associated tyrosine- and threonine-specific cdc2-inhibitory kinase (Homo sapiens) (UniProt Q99640); experiment: Selectivity interaction (LanthaScreen Eu Kinase Binding Assay) EUB0001632a PKMYT1; details: at 10 µM
# T2 sequence (whole entry): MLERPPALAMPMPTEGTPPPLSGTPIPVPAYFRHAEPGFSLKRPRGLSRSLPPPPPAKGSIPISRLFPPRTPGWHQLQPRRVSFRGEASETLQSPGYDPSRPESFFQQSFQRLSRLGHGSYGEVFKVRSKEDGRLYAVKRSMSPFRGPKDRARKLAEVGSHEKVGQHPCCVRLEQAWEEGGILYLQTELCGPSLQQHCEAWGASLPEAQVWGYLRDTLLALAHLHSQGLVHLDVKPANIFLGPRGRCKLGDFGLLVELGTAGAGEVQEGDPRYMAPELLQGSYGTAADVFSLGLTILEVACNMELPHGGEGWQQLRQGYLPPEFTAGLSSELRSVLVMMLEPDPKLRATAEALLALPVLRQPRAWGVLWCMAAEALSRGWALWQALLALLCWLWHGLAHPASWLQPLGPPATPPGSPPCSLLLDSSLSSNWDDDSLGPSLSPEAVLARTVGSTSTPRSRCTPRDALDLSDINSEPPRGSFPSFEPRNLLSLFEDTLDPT
# Sequence of Mast/stem cell growth factor receptor Kit (Homo sapiens), P10721 [L576P] (P10721 whole entry L576P): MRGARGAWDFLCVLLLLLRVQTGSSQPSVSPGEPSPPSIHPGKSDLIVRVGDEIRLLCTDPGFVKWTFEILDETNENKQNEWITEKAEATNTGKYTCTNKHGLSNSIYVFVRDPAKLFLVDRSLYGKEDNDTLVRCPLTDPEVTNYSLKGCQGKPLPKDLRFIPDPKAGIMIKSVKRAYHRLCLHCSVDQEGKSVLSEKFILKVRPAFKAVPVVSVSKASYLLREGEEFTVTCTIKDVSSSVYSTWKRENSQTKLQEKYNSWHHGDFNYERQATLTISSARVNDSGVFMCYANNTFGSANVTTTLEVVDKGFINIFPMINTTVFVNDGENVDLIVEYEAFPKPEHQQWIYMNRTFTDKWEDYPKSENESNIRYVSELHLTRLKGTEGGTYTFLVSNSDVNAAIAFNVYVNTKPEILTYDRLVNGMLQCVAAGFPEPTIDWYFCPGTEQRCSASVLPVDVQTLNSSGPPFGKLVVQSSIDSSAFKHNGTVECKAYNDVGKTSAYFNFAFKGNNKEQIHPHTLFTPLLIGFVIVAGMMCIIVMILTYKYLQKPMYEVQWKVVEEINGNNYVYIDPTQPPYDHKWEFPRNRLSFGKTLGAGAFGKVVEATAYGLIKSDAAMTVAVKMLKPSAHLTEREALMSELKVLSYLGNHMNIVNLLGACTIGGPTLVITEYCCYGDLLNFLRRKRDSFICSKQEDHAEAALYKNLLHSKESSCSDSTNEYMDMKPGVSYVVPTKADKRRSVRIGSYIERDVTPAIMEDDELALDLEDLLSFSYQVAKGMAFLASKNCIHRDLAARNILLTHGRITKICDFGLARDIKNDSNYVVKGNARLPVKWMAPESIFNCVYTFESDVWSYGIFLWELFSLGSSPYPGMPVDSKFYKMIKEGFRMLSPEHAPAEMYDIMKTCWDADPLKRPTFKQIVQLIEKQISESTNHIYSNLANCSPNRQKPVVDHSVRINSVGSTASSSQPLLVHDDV
# Sequence of Protein kinase C eta type (Homo sapiens) (P24723 whole entry): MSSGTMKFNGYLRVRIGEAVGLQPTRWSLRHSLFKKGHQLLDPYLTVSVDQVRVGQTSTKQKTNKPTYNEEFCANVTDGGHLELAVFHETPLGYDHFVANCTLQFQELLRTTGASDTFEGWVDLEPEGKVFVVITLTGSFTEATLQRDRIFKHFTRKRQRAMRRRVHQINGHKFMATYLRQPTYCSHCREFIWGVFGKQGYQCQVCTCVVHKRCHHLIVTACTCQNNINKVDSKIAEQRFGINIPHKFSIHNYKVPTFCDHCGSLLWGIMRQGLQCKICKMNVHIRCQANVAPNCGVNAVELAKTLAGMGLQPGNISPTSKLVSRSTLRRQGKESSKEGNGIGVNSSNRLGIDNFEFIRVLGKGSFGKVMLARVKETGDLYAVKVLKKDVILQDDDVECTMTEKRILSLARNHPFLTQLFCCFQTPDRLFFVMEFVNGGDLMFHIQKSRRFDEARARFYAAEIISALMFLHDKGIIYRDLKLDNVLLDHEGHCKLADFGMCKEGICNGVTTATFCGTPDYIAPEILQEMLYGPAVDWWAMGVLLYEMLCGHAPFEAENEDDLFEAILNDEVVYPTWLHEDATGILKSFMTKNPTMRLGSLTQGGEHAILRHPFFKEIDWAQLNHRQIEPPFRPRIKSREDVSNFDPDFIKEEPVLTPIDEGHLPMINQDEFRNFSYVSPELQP
# Sequence of Mast/stem cell growth factor receptor Kit (Homo sapiens), P10721 [A829P] (P10721 whole entry A829P): as the sequence (P10721 whole entry L576P) above, with P576L, A829P counted along it
# Sequence of Mast/stem cell growth factor receptor Kit (Homo sapiens), P10721 [V559D] (P10721 whole entry V559D): as the sequence (P10721 whole entry L576P) above, with V559D, P576L counted along it
# Sequence of Mast/stem cell growth factor receptor Kit (Homo sapiens), P10721 [D816H] (P10721 whole entry D816H): as the sequence (P10721 whole entry L576P) above, with P576L, D816H counted along it
# Sequence of Cyclin-dependent kinase 8 (P49336 whole entry): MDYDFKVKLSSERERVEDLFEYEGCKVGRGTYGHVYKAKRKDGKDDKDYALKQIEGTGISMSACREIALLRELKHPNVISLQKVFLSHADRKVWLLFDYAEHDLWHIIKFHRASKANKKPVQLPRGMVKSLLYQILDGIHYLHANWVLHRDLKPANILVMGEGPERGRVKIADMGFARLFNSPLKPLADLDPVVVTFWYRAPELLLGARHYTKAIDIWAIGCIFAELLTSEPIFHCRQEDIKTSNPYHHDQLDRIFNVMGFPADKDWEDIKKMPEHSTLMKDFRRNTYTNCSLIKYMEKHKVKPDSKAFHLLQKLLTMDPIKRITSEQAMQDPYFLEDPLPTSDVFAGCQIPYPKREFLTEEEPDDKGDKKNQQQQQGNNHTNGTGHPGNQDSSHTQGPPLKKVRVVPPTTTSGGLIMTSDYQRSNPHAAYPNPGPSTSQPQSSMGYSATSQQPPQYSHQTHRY
smiles,measurement,setting,value
Nc1cnc(N2CCc3cc(S(=O)(=O)Nc4c(F)cc(Cl)cc4F)cc(N4CCCC4=O)c32)nc1 [TP-020n],% of control,[1],100%
same,% of control,[2],100%
same,% of control,[3],83%
same,% of control,[4],100%
same,% of control,[5],100%
same,% of control,[6],100%
same,% of control,[7],100%
same,% of control,[8],100%
CC(=O)Nc1cccc(-n2c(=O)n(C3CC3)c(=O)c3c(Nc4ccc(I)cc4F)n(C)c(=O)c(C)c32)c1,% of control,[9],107%
O[C@H]1CC[C@H](Nc2ncc3nc(Nc4c(F)cc(F)cc4F)n([C@H]4CCOC4)c3n2)CC1,% of control,[10],100%
same,% of control,[11],93%
CNC(=O)Nc1ccc(-c2nc(N3CC4CCC(C3)O4)c3cnn(C4CCC5(CC4)OCCO5)c3n2)cc1,% of control,[12],100%
N#Cc1cccc(-c2c[nH]c3ncnc(N4CCOCC4)c23)c1,% of control,[13],80%
COCC(=O)NC/C=C/c1ccc2ncnc(Nc3ccc(Oc4ccc(C)nc4)c(C)c3)c2c1 [CP-724714],% of control,[14],81%
C=CC(=O)Nc1ccc(C(=O)Nc2[nH]nc3c2CN(C(=O)N[C@H](CN(C)C)c2ccccc2)C3(C)C)cc1,% of engagement,[15],-12.5%
Cc1cc([C@@H](C)Nc2ccccc2C(=O)O)c2nc(N3CCOCC3)cc(=O)n2c1 [AZD-6482],% of control,[16],100%
Cn1cc(-n2cnc3c(NCc4nc5cc(Cl)c(Cl)cc5[nH]4)nc(N4CCOCC4)nc32)cn1,% of inhibition,[17],-3.65%
